In publication PMC11471619, “A palmitoyl transferase chemical–genetic system to map ZDHHC-specific S-acylation” (Nature Biotechnology, 2024):
One block for each molecule: values may come before it.

How the values were obtained:
Assay in all cases: probe loading in HEK293T, FLAG IP, TAMRA click, in-gel fluorescence
Format in all cases: cell-based
Settings in all cases: 15 µM, fed as free acid and activated to the CoA ester in cells; covalent thioester
[1] = target: T1, ZDHHC3 (Homo sapiens, UniProt Q9NYG2, I182G)
T1 construct: N-terminal 3xFLAG tag; expressed in HEK293T, anti-FLAG immunoprecipitated
T1 sequence (Q9NYG2 1-299 I182G): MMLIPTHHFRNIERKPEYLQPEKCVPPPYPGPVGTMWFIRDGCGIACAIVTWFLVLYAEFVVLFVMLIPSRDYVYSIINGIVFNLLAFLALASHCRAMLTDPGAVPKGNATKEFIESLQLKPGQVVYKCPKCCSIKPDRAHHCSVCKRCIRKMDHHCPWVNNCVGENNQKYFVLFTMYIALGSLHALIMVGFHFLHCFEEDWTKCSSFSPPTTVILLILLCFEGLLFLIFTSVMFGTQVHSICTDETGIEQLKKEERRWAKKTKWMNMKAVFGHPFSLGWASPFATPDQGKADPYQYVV

[2] = target: T2, ZDHHC15 (Homo sapiens, UniProt Q96MV8, Y184G)
T2 construct: N-terminal 3xFLAG tag; expressed in HEK293T, anti-FLAG immunoprecipitated
T2 sequence (Q96MV8 1-337 Y184G): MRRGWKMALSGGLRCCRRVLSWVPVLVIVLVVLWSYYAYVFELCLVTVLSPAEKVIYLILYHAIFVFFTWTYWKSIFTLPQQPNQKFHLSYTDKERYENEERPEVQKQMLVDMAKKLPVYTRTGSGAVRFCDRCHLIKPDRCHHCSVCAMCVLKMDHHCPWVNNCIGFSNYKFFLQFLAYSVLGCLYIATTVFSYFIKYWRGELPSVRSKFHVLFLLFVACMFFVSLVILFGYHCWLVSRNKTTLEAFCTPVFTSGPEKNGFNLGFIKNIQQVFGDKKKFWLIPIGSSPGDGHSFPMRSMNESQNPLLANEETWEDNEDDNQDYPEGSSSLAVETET
From the text: probe loading in HEK293T, FLAG IP, TAMRA click, in-gel fluorescence on ZDHHC15 | ZDHHC15(Y184G)/20-cPr

[3] = target: T3, ZDHHC7 (Homo sapiens, UniProt Q9NXF8, L57G)
T3 construct: N-terminal 3xFLAG tag; expressed in HEK293T, anti-FLAG immunoprecipitated
T3 sequence (Q9NXF8 1-308 L57G): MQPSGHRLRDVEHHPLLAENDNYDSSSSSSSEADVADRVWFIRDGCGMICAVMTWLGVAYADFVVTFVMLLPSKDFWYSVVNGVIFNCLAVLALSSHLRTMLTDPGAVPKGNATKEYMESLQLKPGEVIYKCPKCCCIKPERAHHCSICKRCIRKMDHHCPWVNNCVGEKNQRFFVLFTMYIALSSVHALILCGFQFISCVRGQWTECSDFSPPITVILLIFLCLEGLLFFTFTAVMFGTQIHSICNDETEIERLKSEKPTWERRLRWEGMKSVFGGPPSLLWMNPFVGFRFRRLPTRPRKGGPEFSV
From the text: probe loading in HEK293T, FLAG IP, TAMRA click, in-gel fluorescence on ZDHHC7 | ZDHHC7(L57G)/20-Bz

[4] = target: T4, ZDHHC11 (Homo sapiens, UniProt Q9H8X9, M181A)
T4 construct: N-terminal 3xFLAG tag; expressed in HEK293T, anti-FLAG immunoprecipitated
T4 sequence (Q9H8X9 1-412 M181A): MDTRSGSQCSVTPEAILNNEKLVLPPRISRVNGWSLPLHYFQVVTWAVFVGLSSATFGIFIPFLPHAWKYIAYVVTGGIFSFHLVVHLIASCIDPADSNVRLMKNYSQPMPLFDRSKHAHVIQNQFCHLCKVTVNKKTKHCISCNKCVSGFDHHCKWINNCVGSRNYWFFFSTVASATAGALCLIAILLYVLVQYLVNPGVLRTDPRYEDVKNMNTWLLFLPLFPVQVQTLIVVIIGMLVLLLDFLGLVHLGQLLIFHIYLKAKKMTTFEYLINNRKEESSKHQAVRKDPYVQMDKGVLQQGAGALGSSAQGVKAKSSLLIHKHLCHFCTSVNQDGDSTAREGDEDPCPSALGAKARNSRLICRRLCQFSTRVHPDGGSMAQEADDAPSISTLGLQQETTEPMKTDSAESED
From the text: probe loading in HEK293T, FLAG IP, TAMRA click, in-gel fluorescence on ZDHHC11 | ZDHHC11(M181A)/16-cPr

probe loading in HEK293T, FLAG IP, TAMRA click, in-gel fluorescence [2]: ZDHHC15(Y184G)/20-cPr
Compound: C#CCN(CCCCCCCCCCCCCCCC(=O)O)C(=O)C1CC1 [6h, 16-(N-(Prop-2-yn-1-yl)cyclopropanecarboxamido)hexadecanoic acid]
probe loading in HEK293T, FLAG IP, TAMRA click, in-gel fluorescence [1]: four additional optimized mutant/probe pairs: ZDHHC3(I182G)/20-cPr

probe loading in HEK293T, FLAG IP, TAMRA click, in-gel fluorescence [3]: ZDHHC7(L57G)/20-Bz
Compound: C#CCN(CCCCCCCCCCCCCCCC(=O)O)C(=O)c1ccccc1 [6i, 16-(N-(Prop-2-yn-1-yl)benzamido)hexadecanoic acid]

probe loading in HEK293T, FLAG IP, TAMRA click, in-gel fluorescence [4]: ZDHHC11(M181A)/16-cPr
Compound: C#CCN(CCCCCCCCCCCC(=O)O)C(=O)C1CC1 [6b, 12-(N-(Prop-2-yn-1-yl)cyclopropanecarboxamido)dodecanoic acid]
